Target: T1, oligomerization-deficient mutant of a LANA C-terminal protein fragment (aa 1008–1146) (Human herpesvirus 8 (Kaposi's sarcoma-associated herpesvirus), UniProt Q76SB0)
T1 sequence (Q76SB0 1008-1146): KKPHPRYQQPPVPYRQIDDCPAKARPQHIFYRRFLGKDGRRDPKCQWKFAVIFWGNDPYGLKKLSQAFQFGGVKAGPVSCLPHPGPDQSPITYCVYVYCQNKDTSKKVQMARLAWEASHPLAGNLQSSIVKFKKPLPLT
Assay: Microscale thermophoresis (MST) binding assay
Parameters: species or system Kaposi's sarcoma-associated herpesvirus (KSHV)
Settings: read-out: KD value (MST); LANA aa 1008–1146 mutant; means of at least three replicates
Description: In these assays, an oligomerization-deficient mutant of a LANA C-terminal protein fragment (aa 1008–1146) and an oligonucleotide representing LANA-binding site (LBS) 1 were used, which are convenient to use and handle for the described biophysical methods, while maintaining the essential DNA-binding interface.[25]
Equation y = A2 + (A1-A2)/(1 + (x/x0)^p)
1.3 Microscale Thermophoresis (MST) Assay
Microscale Thermophoresis Assay was done as mentioned in a previous publication. 2

COc1ccc(-c2cc(C)c(-n3cc(-c4ccc(C(=O)O)cc4)nn3)cn2)c(Cl)c1 [Compound 20]
Kd: 14.1 ± 3.9 µM

— publication PMC10424179, “Disrupting Kaposi’s Sarcoma-Associated Herpesvirus (KSHV) Latent Replication with a Small Molecule Inhibitor” (Journal of Medicinal Chemistry, 2023)
